Data published in patent US20230089368A1, “POLYAROMATIC UREA DERIVATIVES AND THEIR USE IN THE TREATMENT OF MUSCLE DISEASES” (ANAGENESIS BIOTECHNOLOGIES S.A.S., priority 2019, published 2023).
Where two headings read alike, the source gives them in different places.

How the values were obtained:
[1] = test system: muscle progenitors (hMP) from DMD hiPSC or WT hiPSC; assay: Myotube assay: myogenic activity (total myotube area per well); assay type: cell-based, human; settings: for Emax: read-out: MA (normalized Myotube Area, efficacy)
Protocol: An in vitro assay for assessing the efficacy of compounds for use in treating, ameliorating, delaying, curing and/or preventing a disease or condition associated with muscle cells and/or satellite cells is described in example 78. Herein, the generation of myotubes and satellite cells after adding a compound to a myotube assay workflow is assessed. Said myotube assay workflow is derived from wild-type or DMD human induced pluripotent stem cells (WT hiPSC or DMD hiPSC). Before the addition of said compound, the assay comprises satellite-like cells, but no significant amount of myotubes.
(§1) The efficacy of said compound for use in treating, ameliorating, delaying, curing and/or preventing a disease or condition associated with muscle cells and/or satellite cells is positively correlated with the generation of myotubes (i.e. the increase of the area occupied by myotubes on the assay) and/or satellite cells (i.e. the increase of the number of satellite cells) in the assay after adding said compound. The generation of myotubes by the addition of said compound is expressed as the EC50 value, the concentration of said compound that corresponds with the half-maximal generation of myotubes, and the MA (normalized myotube area) value, the normalized area occupied by generated myotubes on the assay. […] Since muscle cells are formed from myotubes during myogenesis, the generation of myotubes in the assay is a good indicator of the ability of said compound to induce the formation of functional muscle cells in vivo. The number of satellite cells is measured as the percentage of Pax7 positive cells, relative to the total number of cells in the assay, as shown in FIG. 3. The percentage of Pax7 is a good indicator of the ability of said compound to induce the formation of satellite cells which are able to play a role in muscle repair and regeneration in vivo.
(§2) DMD human induced pluripotent stem cells (hereafter “DMD hiPSC”), generated from the NORM-1 hiPSC WT cell line by gene editing, or WT human induced pluripotent stem cells (hereafter “WT hiPSC”), being NORM-1 hiPSC wt cell line, have been differentiated according to Chal et al. 2015, 2016, to produce muscle progenitors (hereafter “hMP”). The hMP population contains satellite-like cells (i.e Pax7-positive cells) and satellite cells' progenies (i.e. Myogenin-positive cells).
(§3) FIG. 1 provides an example of a Myotube assay workflow. At day 0, hMP are thawed and 3.1 million cells are plated into a T75-flask coated with hESC-qualified Matrigel™ (Corning) in SkGM proliferating medium (PromoCells), supplemented with 5 μM Y-27632 (Tocris Bioscience). On day 2, SkGM proliferating medium is refreshed. On day 4, hMP are harvested and transferred into a 384-well plate coated with collagen type I at a density of 3500 cells/well in a DMEM-based medium, containing 5% of knockout serum replacement (Gibco), 1% PenStrep (Gibco), 1% MEM NEAA (Gibco) and 0.1 mM 2-mercaptoethanol (Gibco) (hereafter “K5 medium”) and 5 μM Y-27632. Compounds to be tested are then added in the medium and incubated for 3 days at 37° C. On day 7, cells are fixed and immunostained. For example, myotubes (alpha-actinin staining) and satellite-like (Pax7 staining) cells can be analyzed for total myotube area per well or Pax7-positive cell quantification.
(§4) DMD hMP were put in the Myotube assay according to the workflow described in Example 2.1. In particular, compound (i) was added at concentrations ranging from 1.5 nM to 30 μM, starting from day 4. hMP were cultivated for three more days in presence of compound (i), then fixed and analyzed for quantification of total myotube area per well. Duplicates of each condition were averaged.
Qualitative scale: ++++: EC50<500 nM; +++: 500 nM≤EC50<1000 nM; ++: 1000 nM≤EC50<5000 nM; +: EC50≥5000 nM; +++: MA≥75%; ++: 50%≤MA<75%; +: 25%≤MA<50%.

[2] = test system: satellite-like cells (Pax7-positive cells) in hMP; assay: Myotube assay: Pax7-positive (satellite-like) cell quantification; assay type: cell-based, human; design: key to Pax7% (pool of Pax7-positive cells) / Pax7: −: Depletes the pool of cells, while positively affects the myotubes; +: Maintains or increases the pool of cells, with at least 1 of the highest concentration known to be cytotoxic; ++: Maintains or increases the pool of cells, without any toxicity; settings: for Pax7% (pool of Pax7-positive cells): myotube assay, compounds incubated 3 days
Text: as §1, §2, §3
as §4, with “percentage” for “quantification”, “Pax7-positive cells and nuclei number.” for “total myotube area per well.”
(−): Depletes the pool of cells, while positively affects the myotubes; (+): Maintains or increases the pool of cells, with at least 1 of the highest concentration known to be cytotoxic; and (++) Maintains or increases the pool of cells, without any toxicity.

[3] = Homo sapiens, 72 h, myotube assay, compounds incubated 3 days

| Structure (SMILES) | Emax [1, 3] [%] | Pax7% (pool of Pax7-positive cells) [2] | EC50 ([1]; Homo sapiens, 72 h, myotube assay, 10 points dose-response 1.5 nM to 30 μM, compounds incubated 3 days, read-out: EC50 (myogenic activity, half-maximal generation of myotubes)) [nM] | MA ([1]; comparative compounds, same assay, NA: non active) | EC50 ([1]; comparative compounds, same assay, NA: non active, read-out: EC50) [nM] | Pax7 ([2]; comparative compounds, same assay) |
| --- | --- | --- | --- | --- | --- | --- |
| COc1cccc(-n2nc(C(C)(C)C)cc2NC(=O)Nc2ccc(Oc3ccnc4[nH]c(=O)cnc34)cc2SC)c1 [(aw), 1-(3-(tert-butyl)-1-(3-methoxyphenyl)-1H-pyrazol-5-yl)-3-(2-(methylthio)-4-((3-oxo-3,4-dihydropyrido[2,3-b]pyrazin-8-yl)oxy)phenyl)urea] | ≥ 75 | + |  |  |  |  |
| CSc1cc(Oc2ccnc(NC(C)=O)c2)ccc1NC(=O)Nc1cc(C(C)(C)C)nn1-c1ccccc1 [(aq), N-(4-(4-(3-(3-(tert-butyl)-1-phenyl-1H-pyrazol-5-yl)ureido)-3-(methylthio)phenoxy)pyridin-2-yl)acetamide] | ≥ 75 | + |  |  |  |  |
| CC(C)(C)c1cc(NC(=O)Nc2ccc(Oc3ccnc4c3CCC(=O)N4)c3ccccc23)on1 [(dg), 1-(3-(tert-butyl)isoxazol-5-yl)-3-(4-((7-oxo-5,6,7,8-tetrahydro-1,8-naphthyridin-4-yl)oxy)naphthalen-1-yl)urea] | ≥ 75 | + |  |  |  |  |
| O=C(Nc1ccc(Oc2ccnc3[nH]c(=O)cnc23)cc1F)Nc1cc(C2(C(F)(F)F)CC2)nn1-c1ccccc1 [(d), 1-(2-fluoro-4-((3-oxo-3,4-dihydropyrido[2,3-b]pyrazin-8-yl)oxy)phenyl)-3-(1-phenyl-3-(1-(trifluoromethyl)cyclopropyl)-1H-pyrazol-5-yl)urea] | 50 to 75 | + |  |  |  |  |
| CSc1cc(Oc2ccnc3c2CCC(=O)N3)ccc1NC(=O)Nc1cc(C(C)(C)C)no1 [(cz), 1-(3-(tert-butyl)isoxazol-5-yl)-3-(2-(methylthio)-4-((7-oxo-5,6,7,8-tetrahydro-1,8-naphthyridin-4-yl)oxy)phenyl)urea] | ≥ 75 | + |  |  |  |  |
| CSc1cc(Oc2ccnc3c2OCC(=O)N3)ccc1NC(=O)Nc1cc(C(C)(C)C)nn1-c1ccccc1 [(ct), 1-(3-(tert-butyl)-1-phenyl-1H-pyrazol-5-yl)-3-(2-(methylthio)-4-((3-oxo-3,4-dihydro-2H-pyrido[3,2-b][1,4]oxazin-8-yl)oxy)phenyl)urea] | ≥ 75 | + |  |  |  |  |
| CSc1cc(Oc2ccnc(NC(=O)OC(C)(C)C)c2)ccc1NC(=O)Nc1cc(C(C)(C)C)nn1-c1ccccc1 [(bi), tert-butyl N-[4-{4-[(5-tert-butyl-2-phenyl-pyrazol-3-yl)carbamoylamino]-3-methylsulfanyl-phenoxy}-2-pyridyl]carbamate] | ≥ 75 | ++ |  |  |  |  |
| CSc1cc(Oc2ccnc3[nH]c(=O)[nH]c23)ccc1NC(=O)Nc1cc(C(C)(C)C)nn1-c1ccccc1 [(dm), 1-(3-(tert-butyl)-1-phenyl-1H-pyrazol-5-yl)-3-(2-(methylthio)-4-((2-oxo-2,3-dihydro-1H-imidazo[4,5-b]pyridin-7-yl)oxy)phenyl)urea] | ≥ 75 | − |  |  |  |  |
| CCOC(=O)Nc1cc(Oc2ccc(NC(=O)Nc3cc(C(C)(C)C)nn3-c3ccccc3)c(SC)c2)ccn1 [(cv), Ethyl (4-(4-(3-(3-(tert-butyl)-1-phenyl-1H-pyrazol-5-yl)ureido)-3-(methylthio)phenoxy)pyridin-2-yl)carbamate] | ≥ 75 | + |  |  |  |  |
| CC(C)(C)c1cc(NC(=O)Nc2ccc(Oc3ccnc4[nH]c(=O)cnc34)cc2C(F)(F)F)n(-c2ccccc2)n1 [(v), 1-(3-(tert-butyl)-1-phenyl-1H-pyrazol-5-yl)-3-(4-((3-oxo-3,4-dihydropyrido[2,3-b]pyrazin-8-yl)oxy)-2-(trifluoromethyl)phenyl)urea] | ≥ 75 | ++ |  |  |  |  |
| CC(C)(C)c1cc(NC(=O)Nc2ccc(Oc3ccnc4[nH]c(=O)cnc34)cc2F)n(-c2ncccn2)n1 [(m), 1-(3-(tert-butyl)-1-(pyrimidin-2-yl)-1H-pyrazol-5-yl)-3-(2-fluoro-4-((3-oxo-3,4-dihydropyrido[2,3-b]pyrazin-8-yl)oxy)phenyl)urea] | 50 to 75 | ++ |  |  |  |  |
| CNCC(=O)Nc1cc(Oc2ccc(NC(=O)Nc3cc(C(C)(C)C)nn3-c3ccccc3)c(SC)c2)ccn1 [(bq), N-(4-(4-(3-(3-(tert-butyl)-1-phenyl-1H-pyrazol-5-yl)ureido)-3-(methylthio)phenoxy)pyridin-2-yl)-2-(methylamino)acetamide] | ≥ 75 | + | < 500 |  |  |  |
| CC(C)(C)c1cc(NC(=O)Nc2ccc(Oc3ccnc4[nH]c(=O)cnc34)cc2F)sn1 [(q), 1-(3-(tert-butyl)isothiazol-5-yl)-3-(2-fluoro-4-((3-oxo-3,4-dihydropyrido[2,3-b]pyrazin-8-yl)oxy)phenyl)urea] | 50 to 75 | ++ |  |  |  |  |
| CSc1cc(Oc2ccnc3[nH]c(=O)cnc23)ccc1NC(=O)Nc1cc(C(C)(C)C)on1 [(dh), 1-(5-(tert-butyl)isoxazol-3-yl)-3-(2-(methylthio)-4-((3-oxo-3,4-dihydropyrido[2,3-b]pyrazin-8-yl)oxy)phenyl)urea] | ≥ 75 | + |  |  |  |  |
| CCSc1cc(Oc2ccnc3[nH]c(=O)cnc23)ccc1NC(=O)Nc1cc(C(C)(C)C)nn1-c1ccccc1 [(am), 1-(3-(tert-butyl)-1-phenyl-1H-pyrazol-5-yl)-3-(2-(ethylthio)-4-((3-oxo-3,4-dihydropyrido[2,3-b]pyrazin-8-yl)oxy)phenyl)urea] | ≥ 75 | ++ |  |  |  |  |
| CC(C)(C)c1cc(NC(=O)Nc2ccc(Oc3ccnc4[nH]c(=O)cnc34)cc2F)n(-c2ccccc2)n1 [CCT196969] |  |  |  | ++ (50%≤MA<75%) | 500 to 1000 | + |
| CC(=O)n1nc(C(C)(C)C)cc1NC(=O)Nc1ccc(Oc2ccnc3[nH]c(=O)cnc23)cc1F [(o), 1-(1-acetyl-3-(tert-butyl)-1H-pyrazol-5-yl)-3-(2-fluoro-4-((3-oxo-3,4-dihydropyrido[2,3-b]pyrazin-8-yl)oxy)phenyl)urea] | 25 to 50 | ++ |  |  |  |  |
| O=C(Nc1ccc(Oc2ccnc3[nH]c(=O)cnc23)cc1F)Nc1c2c(nn1-c1ccccc1)CCC2 [(x), 1-(2-fluoro-4-((3-oxo-3,4-dihydropyrido[2,3-b]pyrazin-8-yl)oxy)phenyl)-3-(2-phenyl-2,4,5,6-tetrahydrocyclopenta[c]pyrazol-3-yl)urea] | 25 to 50 | ++ |  |  |  |  |
| CSc1cc(Oc2ccnc(NC(=O)OCc3ccccc3)c2)ccc1NC(=O)Nc1cc(C(C)(C)C)nn1-c1ccccc1 [(cx), Benzyl (4-(4-(3-(3-(tert-butyl)-1-phenyl-1H-pyrazol-5-yl)ureido)-3-(methylthio)phenoxy)pyridin-2-yl)carbamate] | ≥ 75 | + |  |  |  |  |
